Laboratory results: article PMC9572811, “Synthesis of Novel Benzimidazole-Based Thiazole Derivatives as Multipotent Inhibitors of α-Amylase and α-Glucosidase: In Vitro Evaluation along with Molecular Docking Study” (Molecules, 2022)
Where two headings read alike, the source gives them in different places.

Assays:
α-amylase = target: T1, α-amylase (Sus scrofa, UniProt P00690); experiment: α-amylase inhibition assay; format: biochemical, Porcine
T1 sequence (P00690 16-511): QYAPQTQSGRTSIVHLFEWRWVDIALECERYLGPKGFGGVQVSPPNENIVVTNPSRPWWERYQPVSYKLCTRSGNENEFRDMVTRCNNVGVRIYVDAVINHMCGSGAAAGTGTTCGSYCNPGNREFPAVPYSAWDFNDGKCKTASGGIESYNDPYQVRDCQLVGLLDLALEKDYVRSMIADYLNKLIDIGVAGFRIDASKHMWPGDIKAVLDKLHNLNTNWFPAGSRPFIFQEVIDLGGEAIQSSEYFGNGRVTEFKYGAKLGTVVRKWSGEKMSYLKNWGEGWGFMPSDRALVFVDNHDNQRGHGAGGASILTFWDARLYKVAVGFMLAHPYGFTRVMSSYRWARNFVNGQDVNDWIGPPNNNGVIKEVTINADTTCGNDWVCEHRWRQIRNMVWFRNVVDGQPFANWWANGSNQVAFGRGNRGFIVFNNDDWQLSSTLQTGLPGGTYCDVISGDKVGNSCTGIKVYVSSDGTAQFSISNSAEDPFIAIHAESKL

[1] = in vitro, porcine pancreatic α-amylase, starch substrate, acarbose as standard

SMILES | IC50 (α-amylase) [µM] | melting point [°C] | IC50 (α-amylase; [1]) [µM]
O=[N+]([O-])c1ccc(/C(CSc2nc3ccccc3[nH]2)=N\Nc2nc(-c3ccc(Cl)c(Cl)c3)cs2)cc1 [Compound 1] | 2.2 ± 0.1 | 206 to 207 | 
O=[N+]([O-])c1ccc(C(CSc2nc3ccccc3[nH]2)=NNc2nc(-c3ccc(F)cc3)cs2)cc1 [Compound 3] |  | 199 to 200 | 1.3 ± 0.05
O=[N+]([O-])c1ccc(C(CSc2nc3ccccc3[nH]2)=NNc2nc(-c3ccccc3F)cs2)cc1 [Compound 4] |  |  | 1.9 ± 0.1
